Test results from patent US7332312B2, “Carbonyl reductase, gene thereof and use of the same” (priority 2002, dated 2008).

Tested on: reductase RRG
Assay: Substrate specificity of RRG: reducing activity against various carbonyl compounds
Type: biochemical, Rhodotorula glutinis var. dairenensis IFO 0415
[1] = relative to reducing activity with 2-chloro-1-(3′-chlorophenyl)ethanone taken as 100%, substrate 1 mM, NADPH 0.25 mM, pH 6.5, 30° C.

Row | Molecule | % Activity [1] | % Activity (pH 6.5)
1 | O=CC(O)CO (racemic) [DL-glyceraldehyde] | 1% | –
2 | O=C1CCN(Cc2ccccc2)C1 [1-benyl-3-pyrolidinone] | 4% | –
3 | CCC(=O)Cc1ccccc1 [1-phenyl-2-butanone] | 20% | –
4 | CC(=O)c1ccccn1 [2-acetylpyridine] | 60% | –
5 | CCC(C)=O [2-butanone] | 10% | –
6 | O=C(CCl)c1cccc(Cl)c1 [2-chloro-1-(3′-chlorophenyl)ethanone] | 100% | –
7 | CCCCCC(C)=O [2-heptanone] | 11% | –
8 | CCCCC(C)=O [2-hexanone] | 13% | –
9 | O=C(CO)c1ccccc1 [2-hydroxyacetophenone] | 34% | –
10 | CCC(=O)C(=O)O [2-keto-n-butyric acid] | 7% | –
11 | O=Cc1ccccn1 [2-pyridinecarbaldehyde] | 45% | –
12 | COc1ccc(C(C)=O)cc1OC [3,4-dimethoxyacetophenone] | 46% | –
13 | CC(=O)c1cccnc1 [3-acetylpyridine] | 28% | –
14 | O=CCCc1ccccc1 [3-phenylpropionaldehyde] | 10% | –
15 | CC(=O)c1ccncc1 [4-acetylpyridine] | 44% | –
16 | CC(=O)c1ccc(F)cc1 [4-fluoroacetophenone] | 30% | –
17 | CC(=O)CCO [4-hydroxy-2-butanone] | 11% | –
18 | CC(=O)CC(C)C [4-methyl-2-pentanone] | 10% | –
19 | CC(C)=O [acetone] | 11% | –
20 | CC(=O)CC(C)=O [acetylacetone] | 23% | –
21 | O=Cc1ccccc1 [benzaldehyde] | 25% | –
22 | O=C(c1ccccc1)C(O)c1ccccc1 (stereo not drawn) [benzoin] | 9% | –
23 | CC(=O)CC(=O)OCc1ccccc1 [benzyl acetoacetate] | 30% | –
24 | CC12CCC(C(=O)C1=O)C2(C)C (stereo not drawn) [camphorquinone] | 33% | –
25 | O=C1CCCC1 [cyclopentanone] | 9% | –

Row | Molecule | % Activity [1] | % Activity (pH 6.5)
26 | CC(=O)C1CC1 [cyclopropyl methyl ketone] | 3% | –
27 | CC(=O)C(C)=O [diacetyl] | 4% | –
28 | CCC(=O)CC [diethyl ketone] | 17% | –
29 | CC1(C)COC(=O)C1=O [dihydro-4,4-dimethyl-furandio] | 238% | –
30 | CCOC(=O)C(C)=O [ethly pyruvate] | 247% | –
31 | CCOC(=O)C(Cl)C(=O)c1ccccc1 (stereo not drawn) [ethyl 2-chloro-3-oxo-3-phenpropionate, ethyl 2-chloro-3-oxo-3-phen propionate] | – | 34%
32 | CCOC(=O)C(Cl)C(C)=O (stereo not drawn) [ethyl 2-chloroacetoacetate] | 111% | –
33 | CCOC(=O)C(C)C(C)=O (stereo not drawn) [ethyl 2-methylacetoacetate] | 12% | –
34 | CCOC(=O)C1CCC(=O)C1 (stereo not drawn) [ethyl 3-oxocyclopentanecarboxylate] | 32% | –
35 | CCOC(=O)CC(=O)COC(C)=O [ethyl 4-acetoxyacetoacetate] | 46% | –
36 | CCOC(=O)CC(=O)CN=[N+]=[N-] [ethyl 4-azideacetoacetate] | 11% | –
37 | CCOC(=O)CC(=O)COCc1ccccc1 [ethyl 4-benzyloxyacetoacetate] | 58% | –
38 | CCOC(=O)CC(=O)CBr [ethyl 4-bromoacetoacetate] | 33% | –
39 | CCOC(=O)CC(=O)CCl [ethyl 4-chloroacetoacetate] | 12% | –
40 | CCOC(=O)CC(=O)CO [ethyl 4-hydroxyacetoacetate] | 22% | –
41 | CCOC(=O)CC(C)=O [ethyl acetoacetate] | 35% | –
42 | CCOC(=O)CC(=O)c1ccccc1 [ethyl benzoylylacetate] | 15% | –
43 | O=CCCCC=O [glutaraldehyde] | 2% | –
44 | CC(=O)CO [hydroxyacetone] | 16% | –
45 | CC1=CC(=O)CC(C)(C)C1 [isophorone] | 1% | –
46 | CC(=O)CCC(=O)O [levulinic acid] | 31% | –
47 | O=Cc1cccc(Cl)c1 [m-chlorobenzaldehyde] | 45% | –
48 | CC(=O)c1cccc(O)c1 [m-hydroxyacetophenone] | 16% | –
49 | CC(=O)c1cccc([N+](=O)[O-])c1 [m-nitroacetophenone] | 35% | –
50 | O=Cc1cccc([N+](=O)[O-])c1 [m-nitrobenzaldehyde] | 64% | –

Row | Molecule | % Activity [1] | % Activity (pH 6.5)
51 | COC(=O)C1CCCC1=O (stereo not drawn) [methyl 2-oxocyclopentanecarboxylate, methyl 2-oxocyclopentane carboxylate] | 11% | –
52 | CCCCCCC(=O)C(=O)OC [methyl 2-oxooctanoate] | 3% | –
53 | COC(=O)CC(=O)CCl [methyl 4-chloroacetoacetate] | 81% | –
54 | COC(=O)CC(C)=O [methyl acetoacetate] | 14% | –
55 | CC(=O)C=O [methyl glyoxal] | 13% | –
56 | CCCC(C)=O [methyl n-propylketone] | 12% | –
57 | COC(=O)C(C)=O [methyl pyrucvate] | 208% | –
58 | CCCC=O [n-butylaldhyde] | 20% | –
59 | CCCC(=O)c1ccccc1 [n-butyrophenone] | 8% | –
60 | CCCCCC=O [n-hexylaldehyde] | 10% | –
61 | CCCCCCCCOC(=O)CC(=O)CCl [n-octyl 4-chloroacetoacetate] | 72% | –
62 | O=Cc1ccccc1Cl [o-chlorobenzaldehyde] | 24% | –
63 | O=Cc1ccccc1[N+](=O)[O-] [o-nitrobenza1dehyde] | 31% | –
64 | O=C(O)CC(=O)C(=O)O [oxalacetic acid] | 24% | –
65 | CC(=O)c1ccc(Cl)cc1 [p-chloroacetophenone] | 5% | –
66 | O=Cc1ccc(Cl)cc1 [p-chlorobenzaldehyde] | 11% | –
67 | O=Cc1ccc([N+](=O)[O-])cc1 [p-nitrobenzaldhyde] | 162% | –
68 | CCC=O [propionaldehyde] | 4% | –
69 | CCC(=O)c1ccccc1 [propiophenone] | 14% | –
70 | O=Cc1ccncc1 [pyridine-4-aldehyde] | 55% | –
71 | CC(=O)CC(=O)OC(C)(C)C [tert-butyl acetoacetate] | 1% | –
72 | O=C1COC(=O)C1 [tetrahydrofuran-2,4-dione] | 14% | –
73 | O=C(/C=C/c1ccccc1)c1ccccc1 [trans-calcone] | 22% | –
74 | O=C(c1ccccc1)C(F)(F)F [α,α,α-trifluoroacetophenon] | 83% | –
75 | methyl 2-eteneacetoacetate | 5% | –
